Measurements taken from US11084829B2, “Ubiquitin-specific-processing protease 7 (USP7) modulators and uses thereof” (RAPT THERAPEUTICS, INC., priority 2018, dated 2021).

Each molecule was assayed against USP7 (Homo sapiens, UniProt Q93009) (assay: USP7 inhibitory potency (IC50)).
Assay type: biochemical
Method: Activity for compounds described herein is provided in Table 2, wherein potency levels are provided as follows: (Potency: USP7 IC50: A<0.01 μM; B=0.01-0.1 μM; C=>0.1 μM.

Sequence of USP7 (Q93009 whole entry): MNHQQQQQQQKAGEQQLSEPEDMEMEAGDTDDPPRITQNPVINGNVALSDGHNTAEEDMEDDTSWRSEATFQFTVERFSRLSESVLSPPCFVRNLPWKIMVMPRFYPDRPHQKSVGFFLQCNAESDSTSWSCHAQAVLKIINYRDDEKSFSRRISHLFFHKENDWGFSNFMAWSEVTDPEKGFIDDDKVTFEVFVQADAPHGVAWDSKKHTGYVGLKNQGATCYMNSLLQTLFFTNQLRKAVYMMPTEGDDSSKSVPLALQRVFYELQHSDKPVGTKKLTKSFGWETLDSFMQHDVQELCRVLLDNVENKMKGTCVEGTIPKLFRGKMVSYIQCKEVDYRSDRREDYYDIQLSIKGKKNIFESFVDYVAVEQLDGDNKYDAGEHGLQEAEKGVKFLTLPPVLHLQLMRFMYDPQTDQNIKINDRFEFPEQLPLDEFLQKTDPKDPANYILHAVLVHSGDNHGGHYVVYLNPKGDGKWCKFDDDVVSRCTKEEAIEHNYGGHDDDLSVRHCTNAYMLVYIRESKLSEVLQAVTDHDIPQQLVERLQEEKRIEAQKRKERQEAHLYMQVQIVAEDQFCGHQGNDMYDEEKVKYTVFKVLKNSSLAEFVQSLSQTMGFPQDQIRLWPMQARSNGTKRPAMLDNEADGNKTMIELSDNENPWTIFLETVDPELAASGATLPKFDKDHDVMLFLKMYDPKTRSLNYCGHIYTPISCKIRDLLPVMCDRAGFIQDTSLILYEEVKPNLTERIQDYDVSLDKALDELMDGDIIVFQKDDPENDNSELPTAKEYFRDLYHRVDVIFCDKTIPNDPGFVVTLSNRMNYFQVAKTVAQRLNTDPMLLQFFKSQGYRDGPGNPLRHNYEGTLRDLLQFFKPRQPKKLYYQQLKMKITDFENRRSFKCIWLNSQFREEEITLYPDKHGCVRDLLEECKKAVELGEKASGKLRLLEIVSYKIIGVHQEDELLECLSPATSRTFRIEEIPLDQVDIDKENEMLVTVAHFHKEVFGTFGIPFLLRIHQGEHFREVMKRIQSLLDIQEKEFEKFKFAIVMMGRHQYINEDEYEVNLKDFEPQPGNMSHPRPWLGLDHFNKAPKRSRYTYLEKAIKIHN

How did the IC50 turn out when `Cc1cc(Cl)cc(-c2ncnc3cc(CN4C(=O)COC4=O)sc23)c1CN1C[C@@H](C)NC[C@@H]1C` [Example 76, 3-((4-(5-chloro-2-(((2S,5R)-2,5-dimethylpiperazin-1-yl)methyl)-3-methylphenyl)thieno[3,2-d]pyrimidin-6-yl)methyl)oxazolidine-2,4-dione] was run?
The IC50 was 10 to 100 nM.

`Cc1cc(Cl)cc(-c2ncnc3cc(CN4C(=O)CCC4=O)sc23)c1CN1[C@@H](C)CNC[C@@H]1C` [Example 77, 1-((4-(5-chloro-2-(((2S,6S)-2,6-dimethylpiperazin-1-yl)methyl)-3-methylphenyl)thieno[3,2-d]pyrimidin-6-yl)methyl)pyrrolidine-2,5-dione] was tested. Which IC50 did it give?
Its IC50 is under 10 nM.

Which IC50 does the source give for `Cc1cc(Cl)cc(-c2ncnc3cc(CN4C(=O)CSC4=O)sc23)c1CN1C[C@@H](C)NC[C@@H]1C` [Example 79, 3-((4-(5-chloro-2-(((2S,5R)-2,5-dimethylpiperazin-1-yl)methyl)-3-methylphenyl)thieno[3,2-d]pyrimidin-6-yl)methyl)thiazolidine-2,4-dione] here?
Its IC50 is under 10 nM.

Which IC50 does the source give for `Cc1cc(Cl)cc(-c2ncnc3cc(CN4C(=O)CN(C)C4=O)sc23)c1CN1C[C@@H](C)NC[C@@H]1C` [Example 80, 3-((4-(5-chloro-2-(((2S,5R)-2,5-dimethylpiperazin-1-yl)methyl)-3-methylphenyl)thieno[3,2-d]pyrimidin-6-yl)methyl)-1-methylimidazolidine-2,4-dione] here?
Its IC50 is under 10 nM.

With `Cc1cc(Cl)cc(-c2ncnc3cc(CN4CCCC4=O)sc23)c1CN1C[C@@H](C)NC[C@@H]1C` [Example 81, 1-((4-(5-chloro-2-(((2S,5R)-2,5-dimethylpiperazin-1-yl)methyl)-3-methylphenyl)thieno[3,2-d]pyrimidin-6-yl)methyl)pyrrolidin-2-one] as the molecule, how does the IC50 read?
The IC50 was over 100 nM.

Which IC50 does the source give for `Cc1cc(Cl)cc(-c2ncnc3cc(CN4CCCCC4=O)sc23)c1CN1C[C@@H](C)NC[C@@H]1C` [Example 82, 1-((4-(5-chloro-2-(((2S,5R)-2,5-dimethylpiperazin-1-yl)methyl)-3-methylphenyl)thieno[3,2-d]pyrimidin-6-yl)methyl)piperidin-2-one] here?
Its IC50 is over 100 nM.

For `CCN1CC(=O)N(Cc2cc3ncnc(-c4cc(Cl)cc(C)c4CN4C[C@@H](C)NC[C@@H]4C)c3s2)C1=O` [Example 83, 3-((4-(5-chloro-2-(((2S,5R)-2,5-dimethylpiperazin-1-yl)methyl)-3-methylphenyl)thieno[3,2-d]pyrimidin-6-yl)methyl)-1-ethylimidazolidine-2,4-dione], which IC50 is on record?
The IC50 was under 10 nM.

With `Cc1cc(Cl)cc(-c2ncnc3cc(CN4C(=O)C5CC5C4=O)sc23)c1CN1[C@@H](C)CN(C(=O)C(F)(F)F)C[C@@H]1C` (stereo partly drawn) [Example 84, 3-((4-(5-chloro-2-(((2S,6S)-2,6-dimethyl-4-(2,2,2-trifluoroacetyl)piperazin-1-yl)methyl)-3-methylphenyl)thieno[3,2-d]pyrimidin-6-yl)methyl)-3-azabicyclo[3.1.0]hexane-2,4-dione] as the molecule, how does the IC50 read?
The IC50 was under 10 nM.

How did the IC50 turn out when `C[C@H]1CNC[C@H](C)N1Cc1c(Cl)cc(Cl)cc1-c1ncnc2cc(CN3C(=O)C4CC4C3=O)sc12` (stereo partly drawn) [Example 85, 3-((4-(3,5-dichloro-2-(((2S,6S)-2,6-dimethylpiperazin-1-yl)methyl)phenyl)thieno[3,2-d]pyrimidin-6-yl)methyl)-3-azabicyclo[3.1.0]hexane-2,4-dione] was run?
Its IC50 is under 10 nM.

Which IC50 does the source give for `Cc1cc(Cl)cc(-c2ncnc3cc(CN4C(=O)C5CCCN5C4=O)sc23)c1CN1[C@@H](C)CNC[C@@H]1C` (stereo partly drawn) [Example 86, 2-((4-(5-chloro-2-(((2S,6S)-2,6-dimethylpiperazin-1-yl)methyl)-3-methylphenyl)thieno[3,2-d]pyrimidin-6-yl)methyl)tetrahydro-1H-pyrrolo[1,2-c]imidazole-1,3(2H)-dione] here?
The IC50 was under 10 nM.

Which IC50 does the source give for `Cc1cc(Cl)cc(-c2ncnc3cc(CN4C(=O)CN(C)C4=O)sc23)c1CN1[C@@H](C)CNC[C@@H]1C` [Example 87, 3-((4-(5-chloro-2-(((2S,6S)-2,6-dimethylpiperazin-1-yl)methyl)-3-methylphenyl)thieno[3,2-d]pyrimidin-6-yl)methyl)-1-methylimidazolidine-2,4-dione] here?
Its IC50 is under 10 nM.

With `Cc1cc(Cl)cc(-c2ncnc3cc(CN4C(=O)[C@@H]5CCCN5C4=O)sc23)c1CN1[C@@H](C)CNC[C@@H]1C` [Example 88, (S)-2-((4-(5-chloro-2-(((2S,6S)-2,6-dimethylpiperazin-1-yl)methyl)-3-methylphenyl)thieno[3,2-d]pyrimidin-6-yl)methyl)tetrahydro-1H-pyrrolo[1,2-c]imidazole-1,3(2H)-dione] as the molecule, how does the IC50 read?
Its IC50 is under 10 nM.

`Cc1cc(Cl)cc(-c2ncnc3cc(CN4C(=O)[C@H]5CCCN5C4=O)sc23)c1CN1[C@@H](C)CNC[C@@H]1C` [Example 89, (R)-2-((4-(5-chloro-2-(((2S,6S)-2,6-dimethylpiperazin-1-yl)methyl)-3-methylphenyl)thieno[3,2-d]pyrimidin-6-yl)methyl)tetrahydro-1H-pyrrolo[1,2-c]imidazole-1,3(2H)-dione] was tested. Which IC50 did it give?
The IC50 was under 10 nM.

`Cc1cc(Cl)cc(-c2ncnc3cc(CN4C(=O)CC[C@H]4C(F)(F)F)sc23)c1CN1[C@@H](C)CNC[C@@H]1C` [Example 90, (S)-1-((4-(5-chloro-2-(((2S,6S)-2,6-dimethylpiperazin-1-yl)methyl)-3-methylphenyl)thieno[3,2-d]pyrimidin-6-yl)methyl)-5-(trifluoromethyl)pyrrolidin-2-one] was tested. Which IC50 did it give?
Its IC50 is over 100 nM.

With `Cc1cc(Cl)cc(-c2ncnc3cc(CN4C(=O)CCC4C)sc23)c1CN1[C@@H](C)CNC[C@@H]1C` (stereo partly drawn) [Example 91, 1-((4-(5-chloro-2-(((2S,6S)-2,6-dimethylpiperazin-1-yl)methyl)-3-methylphenyl)thieno[3,2-d]pyrimidin-6-yl)methyl)-5-methylpyrrolidin-2-one] as the molecule, how does the IC50 read?
The IC50 was over 100 nM.

`C[C@H]1CNC[C@H](C)N1Cc1c(Cl)cc(Cl)cc1-c1ncnc2cc(CN3C(=O)CCC3=O)sc12` [Example 92, 1-((4-(3,5-dichloro-2-(((2S,6S)-2,6-dimethylpiperazin-1-yl)methyl)phenyl)thieno[3,2-d]pyrimidin-6-yl)methyl)pyrrolidine-2,5-dione] was tested. Which IC50 did it give?
The IC50 was under 10 nM.

`C[C@H]1CNC[C@H](C)N1Cc1c(Cl)cc(Cl)cc1-c1ncnc2cc(CN3C(=O)CN(C)C3=O)sc12` [Example 94, 3-((4-(3,5-dichloro-2-(((2S,6S)-2,6-dimethylpiperazin-1-yl)methyl)phenyl)thieno[3,2-d]pyrimidin-6-yl)methyl)-1-methylimidazolidine-2,4-dione] was tested. Which IC50 did it give?
The IC50 was under 10 nM.

Which IC50 does the source give for `Cc1cc(Cl)cc(-c2ccnc3cc(CN4C(=O)CCC4=O)sc23)c1CC1CNCCO1` (stereo not drawn) [Example 96, 1-((7-(5-chloro-3-methyl-2-(morpholin-2-ylmethyl)phenyl)thieno[3,2-b]pyridin-2-yl)methyl)pyrrolidine-2,5-dione] here?
Its IC50 is 10 to 100 nM.

`Cc1cc(Cl)cc(-c2ccnc3cc(CN4C(=O)C5C(C4=O)C5(C)C)sc23)c1CC1CNCC(C)(C)O1` (stereo not drawn) [Example 97, 3-((7-(5-chloro-2-((6,6-dimethylmorpholin-2-yl)methyl)-3-methylphenyl)thieno[3,2-b]pyridin-2-yl)methyl)-6,6-dimethyl-3-azabicyclo[3.1.0]hexane-2,4-dione] was tested. Which IC50 did it give?
The IC50 was under 10 nM.

How did the IC50 turn out when `Cc1cc(Cl)cc(-c2ccnc3cc(CN4C(=O)C5CC5C4=O)sc23)c1C[C@@H]1CN[C@@H](C)CO1` (stereo partly drawn) [Example 98, 3-((7-(5-chloro-3-methyl-2-((5-methylmorpholin-2-yl)methyl)phenyl)thieno[3,2-b]pyridin-2-yl)methyl)-3-azabicyclo[3.1.0]hexane-2,4-dione] was run?
Its IC50 is under 10 nM.

With `Cc1cc(Cl)cc(-c2ccnc3cc(CN4C(=O)C5CC5C4=O)sc23)c1C[C@@H]1CNC[C@@H](C)O1` (stereo partly drawn) [Example 99, 3-((7-(5-chloro-3-methyl-2-(((2R,6R)-6-methylmorpholin-2-yl)methyl)phenyl)thieno[3,2-b]pyridin-2-yl)methyl)-3-azabicyclo[3.1.0]hexane-2,4-dione] as the molecule, how does the IC50 read?
Its IC50 is under 10 nM.

Which IC50 does the source give for `Cc1cc(Cl)cc(-c2ccnc3cc(CN4C(=O)C5CC5C4=O)sc23)c1CC1CNCCS1(=O)=O` (stereo not drawn) [Example 100, 3-((7-(5-chloro-2-((1,1-dioxidothiomorpholin-2-yl)methyl)-3-methylphenyl)thieno[3,2-b]pyridin-2-yl)methyl)-3-azabicyclo[3.1.0]hexane-2,4-dione] here?
Its IC50 is 10 to 100 nM.

How did the IC50 turn out when `Cc1cc(Cl)cc(-c2ccnc3cc(CN4C(=O)C5C(C4=O)C5(C)C)sc23)c1CC1OCCNC1=O` (stereo not drawn) [Example 101, 3-((7-(5-chloro-3-methyl-2-((3-oxomorpholin-2-yl)methyl)phenyl)thieno[3,2-b]pyridin-2-yl)methyl)-6,6-dimethyl-3-azabicyclo[3.1.0]hexane-2,4-dione] was run?
The IC50 was 10 to 100 nM.

How did the IC50 turn out when `Cc1cc(Cl)cc(-c2ccnc3cc(CN4C(=O)C5CC5C4=O)sc23)c1CC1CNCCO1` (stereo not drawn) [Example 102, 3-((7-(5-chloro-3-methyl-2-(morpholin-2-ylmethyl)phenyl)thieno[3,2-b]pyridin-2-yl)methyl)-3-azabicyclo[3.1.0]hexane-2,4-dione] was run?
Its IC50 is under 10 nM.

`Cc1cc(Cl)cc(-c2ccnc3cc(CN4C(=O)C5C(C4=O)C5(C)C)sc23)c1CC1CNCCO1` (stereo not drawn) [Example 103, 3-((7-(5-chloro-3-methyl-2-(morpholin-2-ylmethyl)phenyl)thieno[3,2-b]pyridin-2-yl)methyl)-6,6-dimethyl-3-azabicyclo[3.1.0]hexane-2,4-dione] was tested. Which IC50 did it give?
Its IC50 is under 10 nM.

`Cc1cc(Cl)cc(-c2ccnc3cc(CN4C(=O)C5CC5C4=O)sc23)c1C[C@H]1OCCN[C@@H]1C` (stereo partly drawn) [Example 104, 3-((7-(5-chloro-3-methyl-2-(((2R,3R)-3-methylmorpholin-2-yl)methyl)phenyl)thieno[3,2-b]pyridin-2-yl)methyl)-3-azabicyclo[3.1.0]hexane-2,4-dione] was tested. Which IC50 did it give?
Its IC50 is under 10 nM.

With `Cc1cc(Cl)cc(-c2ccnc3cc(CN4C(=O)C5CC5C4=O)sc23)c1C[C@H]1O[C@H](C)CNC1=O` (stereo partly drawn) [Example 105, 3-((7-(5-chloro-3-methyl-2-(((2R,6R)-6-methyl-3-oxomorpholin-2-yl)methyl)phenyl)thieno[3,2-b]pyridin-2-yl)methyl)-3-azabicyclo[3.1.0]hexane-2,4-dione] as the molecule, how does the IC50 read?
Its IC50 is over 100 nM.
